Test results as given in publication PMC5597684, “Prediction and in vitro verification of potential CTL epitopes conserved among PRRSV-2 strains” (Immunogenetics, 2017).
Ends that are not written are not given here.

The sequences below were run against T1, SLA-1*04:01 (Sus scrofa, UniProt O19244) (assay: pSLA complex stability, scintillation proximity assay (125I-β2m dissociation)). Conditions: SPA, 125I-β2m dissociation at 37 °C over 24 h with 200 nM unlabeled β2m, refolded overnight 18 °C with ≈50 μM peptide, average of duplicates, t½ in decimal hours.
Assay type: binding, swine
Experimental: (§1) Five SLA class I alleles were used: SLA-1*04:01, SLA-1*07:02, SLA-2*04:01, SLA-2*05:02 and SLA-3*04:01.
(§2) Based on the bioinformatics described above, 53 peptides (purity >85%, GenScript) were acquired for in vitro verification.
(§3) The stability of the pSLA complexes was determined in vitro using a scintillation proximity assay (SPA) employing the principle of ^125I-radiolabeled β2m dissociation as a measure of pSLA complex stability (Harndahl et al. [2011]; Parker et al. [1992b]). Briefly, denatured biotinylated recombinant SLA heavy chains were diluted in PBS/0.1% Lutrol F68 to 50 nM and refolded overnight at 18 °C with 2–10 nM ^125I-radiolabeled β2m and ≈50 μM of the peptide to be tested in streptavidin-coated scintillation 384-well FlashPlate PLUS microplates (SMP410A001PK, PerkinElmer). In case of a binding peptide, a scintillation signal was observed and the off-rate was subsequently determined by increasing the temperature to 37 °C and the addition of an excess of unlabeled β2m (final concentration 200 nM) while continuously monitoring the scintillation signal in a liquid microplate scintillation plate reader (Topcount NXT, PerkinElmer) for 24 h at 37 °C. The off-rate is equivalent to the peptide-specific dissociation rate and serves as a good measure for pSLA complex stability. The stability values reported are the averages of duplicates in half-life (t½) decimal hours.

In order of falling “Stab. (h), measured stability (average dissociation half-life)” value (“Stab. (h), measured stability” below):
1. KSGHPHGLLF [ID6]  0.1 h
2. RSTPAIVRWF [ID3]  0.1 h

The sequences below were run on SLA-1*07:02 in the same assay as above. Conditions: SPA, 125I-β2m dissociation at 37 °C over 24 h with 200 nM unlabeled β2m, refolded overnight 18 °C with ≈50 μM peptide, average of duplicates, t½ in decimal hours.
Assay type: binding, swine
Experimental: as §1, §2, §3

With TLSNYRRSY [ID15] the “Stab. (h), measured stability” value was 0.3 h.

What follows are sequences tested against T2, SLA-2*04:01 (Sus scrofa, UniProt Q8MHU4) in the same assay as above. Conditions: SPA, 125I-β2m dissociation at 37 °C over 24 h with 200 nM unlabeled β2m, refolded overnight 18 °C with ≈50 μM peptide, average of duplicates, t½ in decimal hours.
Assay type: binding, swine
Experimental: as §1, §2, §3

SSAFFLRYF [ID45] was tested, and the “Stab. (h), measured stability” value was 0.1 h.

What follows are sequences tested against T1, SLA-1*04:01 (assay: pSLA binding affinity, modified ELISA). Conditions: ELISA as above, only one successful affinity measurement, read-out: Aff. (nM), measured affinity (equilibrium dissociation constant).
Design: species or system swine
Experimental: as §1, §2
(§4) Binding affinity of pSLA complexes was determined in vitro using a modified enzyme-linked immunosorbent assay (ELISA) (Sylvester-Hvid et al. [2002]; Pedersen et al. [2011]). Briefly, 1–2 nM denatured biotinylated recombinant SLA heavy chains were refolded with 15 nM human β2m (hβ2m) and eight fivefold incremental concentrations of the peptide to be tested spanning from 0 to 13 μM. Following obtained equilibrium after two nights of incubation at RT, the samples were transferred to a streptavidin coated 96-well capture plate (436014, Thermo Scientific) for 1½ h of incubation. Mouse-anti-hβ2m, BBM1, and horseradish peroxidase-conjugated goat-anti-mouse IgG (A9917, Sigma-Aldrich) were used as primary and secondary detection antibodies, respectively. Washing steps were performed with 0.05% Tween 20 in PBS. The color reaction of TMB Plus2 (4395A, Kem-En-Tec Diagnostics) was stopped with equivalent amounts of H2SO4 (0.5 M, cat 30144.294, VWR International), and the plates were read at 450–650 nm using a Multiskan EX ELISA reader (Thermo). OD values were converted to measures of affinity (equilibrium dissociation constant, K D) using the prefolded biotinylated […]/HLA-A*02:01 as standard (Kast et al. [1994]), and were again converted to percentile rank scores by the same SLA-specific standard curves that are integrated in NetMHCpan. A minimum of two reliable measurements were aspired for each pSLA combination, and in most cases this was obtained. The results are presented as the range between the minimum and maximum measurements converted to rank scores.

In order of rising Kd:
1. YSFPGPPFF [ID4]  37 nM
2. LSASSQTEY [ID38]  91 nM
3. FTWYQLASY [ID13]  92 nM
4. MVNTTRVTY [ID29]  206 nM
5. ALATAPDGTY [ID46]  607 nM
6. RTILGTNNF [ID1]  1030 nM

Same assay, conditions: ELISA, 1–2 nM heavy chain, 15 nM hβ2m, peptide 0 to 13 μM, two nights at RT, average of successful measurements, read-out: Aff. (nM), measured affinity (average equilibrium dissociation constant)

In order of falling Kd:
1. QVYERGCRWY [ID7]  682 nM
2. TTMPSGFELY [ID43]  576 nM
3. NISAVFQTYY [ID23]  413 nM
4. KVAHNLGFYF [ID10]  122 nM
5. RTAIGTPVY [ID17]  57 nM
6. LSDSGRISY [ID19]  10 nM
7. KVAHNLGFY [ID21]  4 nM
8. RTAPNEIAF [ID24]  4 nM
9. ASDWFAPRY [ID25]  2 nM

These sequences were tested against T2, SLA-2*04:01 (assay: pSLA binding affinity, modified ELISA). Conditions: ELISA as above, only one successful affinity measurement, read-out: Aff. (nM), measured affinity (equilibrium dissociation constant).
Design: species or system swine
Experimental: as §1, §2, §4

In order of falling Kd:
1. ATQEWLSRMW [ID31]  50000 nM
2. LSDSGRISY [ID19]  4180 nM
3. TTMPSGFELY [ID43]  1840 nM
4. SSEGHLTSVY [ID34]  1690 nM
5. RTAIGTPVY [ID17]  385 nM
6. QVYERGCRWY [ID7]  209 nM
7. KIFRFGSHKW [ID22]  9 nM

Same assay, conditions: ELISA, 1–2 nM heavy chain, 15 nM hβ2m, peptide 0 to 13 μM, two nights at RT, average of successful measurements, read-out: Aff. (nM), measured affinity (average equilibrium dissociation constant)

In order of rising Kd:
1. FTWYQLASY [ID13]  2 nM
2. FVLSWLTPW [ID28]  3 nM
3. MSWRYSCTRY [ID44]  15 nM
4. LTAALNRNRW [ID36]  40 nM
5. YAQHMVLSY [ID2]  60 nM
6. LSFSYTAQF [ID12]  73 nM
7. NISAVFQTYY [ID23]  862 nM
8. GGNWFHLEW [ID8]  16600 nM
9. ASYVWVPLTW [ID20]  17100 nM
10. WGVYSAIETW [ID48]  21400 nM
